Assay results: patent US9090600B2, “Fungicidal 4-substituted-3-{phenyl[(heterocyclylmethoxy)imino]methyl}-1,2,4-oxadizol-5(4H)-one derivatives” (BAYER INTELLECTUAL PROPERTY GMBH, priority 2011, dated 2015)
Like-named read-outs stand apart in the source and are kept apart here. Marks after values point to notes of the source that are not given here.

Legend:
[1] = test system: Phytophthora infestans; assay type: in vivo; conditions: tomato, preventive spray, 100 ppm of active ingredient, evaluated 7 days after inoculation
[2] = test system: Plasmopara viticola; experiment: Plasmopara test (grapevines)/preventive; assay type: in vivo; conditions: preventive spray, 10 ppm of active ingredient, evaluated 6 days after inoculation
How it was run: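 Young grapevines sprayed preventively with compound formulated in acetone/dimethylacetamide with emulsifier, diluted in water, then inoculated with P. viticola spores after drying. Held 1 day at ~20 °C/100% RH, 4 days in greenhouse at ~21 °C/~90% RH, then misted for 1 day. Efficacy scored 6 days post-inoculation (0% = untreated control, 100% = no disease).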

[3] = test system: Pythium aphanidermatum; experiment: Pythium test (cucumber)/seed treatment; assay type: in vivo; conditions: 10 g/dt seed of active ingredient, emerged seedlings after 7 days
Experimental: (§1) The test is performed under greenhouse conditions.
Cucumber seeds, treated with the active compound or compound combinations, solved in N-methyl-2-pyrrolidon and diluted with water to the desired dosages, were sown in 6*6 cm pots containing 4 cm of a 1:1 mix of steamed field soil and sand.
Perlite was incubated with mycelium fragments of Pythium aphanidermatum. 5 ml of infected perlite was scattered between the treated […] seeds. Seeds were then covered by the 1:1 mix of steamed field soil and sand. Pots were incubated in the greenhouse 7 days at 24° C. and 80% relative humidity. Assessment consisted of counting of emerged seedlings. 0% means an efficacy which corresponds to that of the control, while an efficacy of 100% means that all seedlings have emerged.

[4] = test system: Pythium ultimum; experiment: Pythium test (cotton)/seed treatment; assay type: in vivo; conditions: 10 g/dt seed of active ingredient, emerged seedlings after 7 days
Experimental: as §1
Cotton seeds, treated with the active compound or compound combinations, solved in N-methyl-2-pyrrolidon and diluted with water to the desired dosages, were sown in 6*6 cm pots containing 4 cm of a 1:1 mix of steamed field soil and sand.
Perlite was incubated with mycelium fragments of Pythium ultimum. 1 ml of infected perlite was scattered between the treated cotton seeds. Seeds were then covered by light expanded clay aggregate. Pots were incubated in the greenhouse 7 days at 20° C. and 80% relative humidity.
(§2) Assessment consisted of counting of emerged seedlings. 0% means an efficacy which corresponds to that of the control, while an efficacy of 100% means that all seedlings have emerged.

[5] = test system: Pythium irregulare; experiment: Pythium test (corn)/seed treatment; assay type: in vivo; conditions: 10 g/dt seed of active ingredient, emerged seedlings after 7 days at 10° C. then 14 days at 20° C.
Experimental: as §1
Corn seeds, treated with the active compound or compound combinations, solved in N-methyl-2-pyrrolidon and diluted with water to the desired dosages, were sown in 6*6 cm pots containing 4 cm of a 1:1 mix of steamed field soil and sand.
Perlite was incubated with mycelium fragments of Pythium irregulare. 5 ml of infected perlite was scattered between the treated cotton seeds. Seeds were than covered by the 1:1 mix of steamed field soil and sand. Pots were incubated in the greenhouse 7 days at 10° C. and 80% relative humidity and then 14 days at 20° C. and 80% relative humidity.
as §2

[6] = pH 2.7
[7] = test system: Phytophthora infestans; assay type: in vivo; conditions: tomato plants, spray, 500 ppm, grading 5 days after contamination
[8] = test system: Botrytis cinerea; experiment: In vivo test on Botrytis cinerea (grey mould); conditions: gherkin plants, spray, 500 ppm, grading 4/5 days after contamination
Experimental: The active ingredients tested are prepared by homogenization in a mixture of acetone/Tween/DMSO, then diluted with water to obtain the desired active material
Gherkin plants (Vert petit de Paris variety), sown on a 50/50 peat soil-pozzolana substrate in starter cups and grown at 18-20° C., are treated at the cotyledon Z11 stage by spraying with the active ingredient prepared as described above.
Plants, used as controls, are treated with an aqueous solution not containing the active material. After 24 hours, the plants are contaminated by spraying them with an aqueous suspension of cryopreserved Botrytis cinerea spores (50.000 spores per ml) on upper surface of the leaves. The spores are suspended in a nutrient solution composed of: • 10 g/L of PDB; • 50 g/L of D-fructose; • 2 g/L of NH4NO3; • 1 g/L of KH2PO4.
The contaminated cucumber plants are settled for 4/5 days in a climatic room at 17° C. (day/night) and at 80% relative humidity.
Grading is carried out 4/5 days after the contamination, in comparison with the control plants.
(§3) Under these conditions, good (at least 70%) or total protection is observed at a dose of 500 ppm with the following compounds: […]

[9] = test system: Sphaerotheca fuliginea; experiment: In vivo test on Sphaerotheca fuliginea (cucurbits powdery mildew); conditions: gherkin plants, spray, 500 ppm, grading 12 days after contamination
Experimental: (§4) The active ingredients tested are prepared by homogenization in a mixture of acetone/tween/DMSO, then diluted with water to obtain the desired active material.
Gherkin plants (Vert petit de Paris variety) in starter cups, sown on a 50/50 peat soil-pozzolana substrate and grown at 20° C./23° C., are treated at the cotyledon Z10 stage by spraying with the aqueous suspension described above. Plants, used as controls, are treated with an aqueous solution not containing the active material.
After 24 hours, the plants are contaminated by spraying them with an aqueous suspension of Sphaerotheca fuliginea spores (100.000 spores per ml). The spores are collected from a contaminated plants. The contaminated gherkin plants are incubated at about 20° C./25° C. and at 60/70% relative humidity.
Grading (% of efficacy) is carried out 12 days after the contamination, in comparison with the control plants.
as §3

[10] = test system: Uromyces appendiculatus; experiment: In vivo test on Uromyces appendiculatus (brown rust of bean); conditions: Saxa variety plants, spray, 500 ppm, grading 10 days after contamination
Experimental: as §4
Wheat plants (Saxa variety) sown on 50/50 peat soil-pozzolana substrate in starter cups and grown at 24° C., are treated at the 2-leaf stage (9 cm tall) by spraying with the aqueous suspension described above.
(§5) Plants, used as controls, are treated with an aqueous solution not containing the active material.
After 24 hours, the plants are contaminated by spraying the leaves with an aqueous suspension of Uromyces appendiculatus spores (150.000 spores per ml). The spores are collected from a 10-day-old contaminated […] and are suspended in water containing 2.5 ml/l of tween 80 10%. The contaminated […] are incubated for 24 hours at 20° C. and at 100% relative humidity, and then for 10 days at 20° C. and at 70% relative humidity. Grading is carried out 10 days after the contamination, in comparison with the control plants.
as §3

[11] = test system: Mycosphaerella graminicola; experiment: In vivo test on Mycosphaerella graminicola (wheat leaf spot); conditions: wheat plants, spray, 500 ppm, grading 21 to 28 days after contamination
How it was run: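 Scipion wheat at 1-leaf stage was sprayed with compound suspension (acetone/tween/DMSO diluted in water), then inoculated 24 h later with spores (500.000/ml). Plants were held 72 h at 18° C and 100% RH, then 21 to 28 days at 90% RH. Efficacy was graded as % versus untreated controls.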

[12] = test system: Puccinia recondita; experiment: In vivo test on Puccinia recondita (brown rust); conditions: wheat plants, spray, 500 ppm, grading 10 days after contamination
How it was run: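 Wheat (Scipion) at the 1-leaf stage sprayed with compound suspension (acetone/tween/DMSO diluted in water), then inoculated 24 h later with Puccinia recondita spores at 100.000 spores per ml. Plants were held 24 h at 20 °C/100% RH, then 10 days at 20 °C/70% RH; protection graded 10 days post-inoculation versus untreated controls.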

[13] = Measurement of log P values by HPLC on reversed phase columns (EEC directive 79/831 Annex V.A8); conditions: pH 2.7
[14] = test system: Alternaria brassicae; experiment: In vivo test on Alternaria brassicae (leaf spot of crucifers); conditions: radish plants, spray, 500 ppm, grading 6 to 7 days after contamination
Experimental: as §4
Radish plants (Pernot variety), sown on a 50/50 peat soil-pozzolana substrate in starter cups and grown at 18-20° C., are treated at the cotyledon stage by spraying with the active ingredient prepared as described above.
Plants, used as controls, are treated with the mixture of acetone/tween/water not containing the active material.
After 24 hours, the plants are contaminated by spraying them with an aqueous suspension of Alternaria brassicae spores (40,000 spores per cm^3). The spores are collected from a 12 to 13 days-old culture.
The contaminated radish plants are incubated for 6-7 days at about 18° C., under a humid atmosphere.
Grading is carried out 6 to 7 days after the contamination, in comparison with the control plants.
Under these conditions, good protection (at least 70%) is observed at a dose of 500 ppm with the following compounds: […]

[15] = test system: Pyrenophora teres; experiment: In vivo test on Pyrenophora teres (barley net blotch); conditions: barley plants, spray, 500 ppm, grading 12 days after contamination
Experimental: The active ingredients tested are prepared by homogenization in a mixture of acetone/Tween/DMSO, then diluted with water to obtain the desired active material concentration.
Barley plants (Plaisant variety), sown on a 50/50 peat soil-pozzolana substrate in starter cups and grown at 22° C. (12 h)/20° C. (12 h), are treated at the 1-leaf stage (10 cm tall) by spraying with the active ingredient prepared as described above.
as §5
After 24 hours, the plants are contaminated by spraying them with an aqueous suspension of Pyrenophora teres spores (12.000 spores per ml). The spores are collected from a 12-day-old culture.
The contaminated barley plants are incubated for 24 hours at about 20° C. and at 100% relative humidity, and then for 12 days at 80% relative humidity.
Grading is carried out 12 days after the contamination, in comparison with the control plants.
Under these conditions, good (at least 70%) is observed at a dose of 500 ppm with the following compounds: […]

Compound `C#CCCOC(=O)Nc1cccc(CO/N=C(/c2ccccc2)c2noc(=O)n2C)n1` [Example 3] has an Eff. % [1] of 98%, an Eff. % [2] of 100% and an Eff. % [3] of 95%. The Eff. % [4] was 93%, the Eff. % [5] was 100% and the LogP [6] was 3.27 [a].

For `CCCCC(=O)Nc1cccc(CO/N=C(/c2ccccc2)c2noc(=O)n2C)n1` [Example 15], the Eff. % [1] was 98%, the Eff. % [2] was 97% and the Eff. % [3] was 98%. The Eff. % [4] was 96%, the Eff. % [5] was 100% and the Eff. % [7] was 99%. The LogP [6] was 3.51 [a].

`Cn1c(/C(=N\OCc2cccc(N)n2)c2cccc(F)c2)noc1=O` [Example 83] gave an Eff. % [7] of 100%, an Eff. % [8] of 73% and an Eff. % [9] of 85%. For the same compound, the Eff. % [10] was 75%, the Eff. % [11] was 93% and the Eff. % [12] was 89%. The LogP [6] was 1.34 [a].

With `CCC(CC)C(=O)Nc1cccc(CO/N=C(/c2ccccc2)c2noc(=O)n2C)n1` [Example 124] the Eff. % [7] was 99%, the Eff. % [9] was 80% and the LogP [6] was 3.71 [a].

`Cn1c(/C(=N\OCc2cccc(NC(=O)OCc3ccccc3)n2)c2ccccc2)noc1=O` [Example 168] showed an Eff. % [1] of 92%, an Eff. % [2] of 100% and an Eff. % [3] of 92%. It also gave an Eff. % [4] of 70%, an Eff. % [5] of 100% and an Eff. % [7] of 99%. For the same compound, the LogP [6] was 3.99 [a].

Work on `COc1ccc(OC)c(CC(=O)Nc2cccc(CO/N=C(/c3ccccc3)c3noc(=O)n3C)n2)c1` [Example 190] yielded an Eff. % [7] of 100%, an Eff. % [9] of 98% and an Eff. % [10] of 83%. For the same compound, the Eff. % [11] was 100%, the Eff. % [12] was 94% and the LogP [6] was 3.6 [a].

Compound `CCN(CC)c1cccc(CO/N=C(/c2ccccc2)c2noc(=O)n2C)n1` [Example 197, 3-[(Z)-({[6-(diethylamino)pyridin-2-yl]methoxy}imino)(phenyl)methyl]-4-methyl-1,2,4-oxadiazol-5(4H)-one] has an Eff. % [7] of 100%, an Eff. % [9] of 80% and an Eff. % [10] of 89%. It also gave an Eff. % [11] of 96%, an Eff. % [12] of 94% and a chromatographic logP [13] of 2.63.

`CCOCC(C)OC(=O)Nc1cccc(CO/N=C(/c2ccccc2)c2noc(=O)n2C)n1` (centres unmarked) [Example 199] gave an Eff. % [1] of 97%, an Eff. % [2] of 100% and an Eff. % [3] of 99%. The Eff. % [4] was 96%, the Eff. % [5] was 100% and the LogP [6] was 3.53 [a].

In the case of `CCn1c(/C(=N\OCc2cccc(N)n2)c2ccccc2)noc1=O` [Example 209], the Eff. % [7] is reported as 84%, the Eff. % [9] is reported as 75% and the Eff. % [12] is reported as 88%. The Eff. % [14] was 70% and the LogP [6] was 1.42 [a].

In the case of `CCCCCC(=O)Nc1cccc(CO/N=C(/c2cccc(OC)c2)c2noc(=O)n2C)n1` [Example 211], the Eff. % [7] is reported as 91%, the Eff. % [8] is reported as 84% and the Eff. % [9] is reported as 72%. For the same compound, the Eff. % [12] was 71% and the LogP [6] was 3.92 [a].

In the case of `COc1cccc(C(=O)Nc2nc(CO/N=C(/c3ccccc3)c3noc(=O)n3C)cs2)c1` [Example 212], the Eff. % [7] is reported as 73%, the Eff. % [9] is reported as 100% and the Eff. % [10] is reported as 100%. The Eff. % [15] was 97%, the Eff. % [11] was 100% and the Eff. % [12] was 89%. The Eff. % [14] was 70% and the LogP [6] was 3.58 [a].

Work on `C#CCC(C)OC(=O)Nc1cccc(CO/N=C(/c2ccccc2)c2noc(=O)n2C)n1` (centres unmarked) [Example 226] yielded an Eff. % [1] of 92%, an Eff. % [2] of 100% and an Eff. % [3] of 99%. The Eff. % [4] was 93%, the Eff. % [5] was 90% and the Eff. % [7] was 100%. For the same compound, the LogP [6] was 3.57 [a].

Work on `C#CCOC(=O)Nc1cccc(CO/N=C(/c2ccccc2)c2noc(=O)n2C)n1` [Example 342] yielded an Eff. % [1] of 92%, an Eff. % [2] of 100% and an Eff. % [3] of 100%. It also gave an Eff. % [4] of 100%, an Eff. % [5] of 100% and an Eff. % [7] of 99%. The LogP [6] was 3.13 [a].
